Assay results taken from the NIST ThermoML archive (doi:10.1021/je020140j).
Numbers after ± are expanded uncertainties.

What was measured:
[1] = molar heat capacity at constant pressure; conditions: 101 kPa, Liquid, Small sample (50 mg) DSC
[2] = 101 kPa, Liquid
[3] = xn = mol fraction of the nth substance listed; conditions: 101 kPa, Liquid, x2 = 0
[4] = molar heat capacity at constant pressure; xn = mol fraction of the nth substance listed; conditions: 101 kPa, Liquid, Small sample (50 mg) DSC, x2 = 0

OCCO [1,2-ethanediol]
Conditions | mass density, [2] [kg/m3] | molar heat capacity at constant pressure, [1] [J/K/mol] | viscosity, [2] [mPa·s]
293.15 K | 1113.7 ± 4.3 | 147.47 ± 3.6 | 20.83 ± 0.27
303.15 K | – | 149.71 ± 3.7 | 13.65 ± 0.18
313.15 K | 1093.6 ± 4.9 | 152 ± 3.7 | 9.443 ± 0.13
323.15 K | 1084.7 ± 5.3 | 153.8 ± 3.8 | 6.992 ± 0.11
333.15 K | 1076.4 ± 5.6 | 156.22 ± 3.8 | 5.06 ± 0.082
343.15 K | 1067.5 ± 5.9 | 159.7 ± 3.9 | 3.987 ± 0.066
353.15 K | 1060 ± 6.3 | 161 ± 4 | 3.021 ± 0.051
363.15 K | – | 164.98 ± 4 | –
373.15 K | – | 168.45 ± 4.1 | –

O [water] + OCCO
Conditions | mass density, [3] [kg/m3] | molar heat capacity at constant pressure, [4] [J/K/mol] | viscosity, [3] [mPa·s]
293.15 K | – | 75.29 ± 1.8 | 1.002 ± 0.019
303.15 K | – | 75.38 ± 1.8 | 0.797 ± 0.015
313.15 K | – | 75.21 ± 1.8 | 0.653 ± 0.013
323.15 K | – | 75.23 ± 1.8 | 0.547 ± 0.012
333.15 K | 983.2 ± 5.1 | 75.21 ± 1.8 | 0.467 ± 0.011
343.15 K | 977.8 ± 5.5 | 75.32 ± 1.8 | 0.405 ± 0.01
353.15 K | 971.8 ± 5.8 | 75.48 ± 1.9 | 0.356 ± 0.01
